pIC50: −log10 of the molar value.
Legend:
human LINE-1 = test: Human LINE-1 (L1) retrotransposition dual-luciferase reporter assay in HeLa cells; assay type: cell-based; conditions: Homo sapiens, HeLa, 72 h, read-out: Human LINE-1 IC50 (Human L1 activity inhibition)
Summary of the method: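 HeLa cells transfected with dual-luciferase L1 plasmid pYX017 (100 ng/well), dosed immediately after with serially diluted compounds (0.2% DMSO final) in triplicate and incubated 72 h at 37 °C. Relative L1 activity = Firefly/Renilla ×10,000; IC50 from logistic non-linear regression.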

cancer cell lines = test: Cancer cell proliferation activity of representative nucleosides, CellTiterGlo 72 h (Example 7, Tables 8 and 9); assay type: cell-based
Summary of the method: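 Cancer cell lines seeded and incubated at 37° C overnight, then exposed to nucleosides (final DMSO 0.1%) for 72 h at 37° C with 5% or 10% CO2. Viability read by CellTiterGlo luminescence and normalized to 0.1% DMSO (100%) and 10 μM staurosporine (0%) controls.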

pIC50 (human LINE-1): 8.96
pIC50 (cancer cell lines; 72 h, 5637, 72 h (Table 9)): 5.59
pIC50 (cancer cell lines; 72 h, CLS439, 72 h (Table 9)): < 4.30
pIC50 (cancer cell lines; 72 h, HS729, 72 h (Table 9)): 5.37
pIC50 (cancer cell lines; 72 h, J82, 72 h (Table 9)): 5.27
pIC50 (cancer cell lines; 72 h, JAR, 72 h (Table 9)): 5.27
pIC50 (cancer cell lines; 72 h, MT3, 72 h (Table 9)): 5.58
pIC50 (cancer cell lines; 72 h, PC3, 72 h (Table 9)): 5.51
pIC50 (cancer cell lines; 72 h, RD, 72 h (Table 9)): 5.48
pIC50 (cancer cell lines; 72 h, T24, 72 h (Table 9)): 5.57
pIC50 (cancer cell lines; Homo sapiens, 22Rv1, 72 h, 22RV1, 72 h (Table 9)): < 4.30
pIC50 (cancer cell lines; Homo sapiens, 786-0, 72 h, 786O, 72 h (Table 9)): 5.48
pIC50 (cancer cell lines; Homo sapiens, A204, 72 h, A204, 72 h (Table 9)): 5.84
pIC50 (cancer cell lines; Homo sapiens, A549, 72 h, A549, 72 h (Table 9)): 5.53
pIC50 (cancer cell lines; Homo sapiens, A673, 72 h, A673, 72 h (Table 9)): 5.34
pIC50 (cancer cell lines; Homo sapiens, A2780, 72 h, A2780, 72 h (Table 9)): 5.31
pIC50 (cancer cell lines; Homo sapiens, A-375, 72 h, A375, 72 h (Table 9)): 5.57
pIC50 (cancer cell lines; Homo sapiens, A-431, 72 h, A431, 72 h (Table 9)): 5.54
pIC50 (cancer cell lines; Homo sapiens, ACHN, 72 h, 72 h (Table 9)): 5.61
pIC50 (cancer cell lines; Homo sapiens, ASPC1, 72 h, ASPC1, 72 h (Table 9)): 5.30
pIC50 (cancer cell lines; Homo sapiens, BT-20, 72 h, BT20, 72 h (Table 9)): 5.55
pIC50 (cancer cell lines; Homo sapiens, BXPC-3, 72 h, BXPC3, 72 h (Table 9)): 5.56
pIC50 (cancer cell lines; Homo sapiens, C-33-A, 72 h, C33A, 72 h (Table 9)): 5.58
pIC50 (cancer cell lines; Homo sapiens, CAKI-1, 72 h, CAKI1, 72 h (Table 9)): 6.16
pIC50 (cancer cell lines; Homo sapiens, COLO 205, 72 h, COLO205, 72 h (Table 9)): 5.30
pIC50 (cancer cell lines; Homo sapiens, COLO-678, 72 h, COLO678, 72 h (Table 9)): 5.51
pIC50 (cancer cell lines; Homo sapiens, Ca-Ski, 72 h, CASKI, 72 h (Table 9)): 5.27
pIC50 (cancer cell lines; Homo sapiens, Caco-2, 72 h, CACO2, 72 h (Table 9)): < 4.30
pIC50 (cancer cell lines; Homo sapiens, Calu-6, 72 h, CALU6, 72 h (Table 9)): 5.28
pIC50 (cancer cell lines; Homo sapiens, DLD-1, 72 h, DLD1, 72 h (Table 9)): < 4.30
pIC50 (cancer cell lines; Homo sapiens, DU-145, 72 h, DU145, 72 h (Table 9)): 5.60
pIC50 (cancer cell lines; Homo sapiens, EFO-21, 72 h, EFO21, 72 h (Table 9)): 5.34
pIC50 (cancer cell lines; Homo sapiens, EJ-28, 72 h, EJ28, 72 h (Table 9)): 5.24
pIC50 (cancer cell lines; Homo sapiens, Granta-519, 72 h, GRANTA-519, 72 h (Table 9)): 5.77
pIC50 (cancer cell lines; Homo sapiens, HCT-15, 72 h, HCT15, 72 h (Table 9)): 5.23
pIC50 (cancer cell lines; Homo sapiens, HCT-116, 72 h, HCT116, 72 h (Table 9)): 5.33
pIC50 (cancer cell lines; Homo sapiens, HEK293, 72 h, HEK293, 72 h (Table 9)): 5.38
pIC50 (cancer cell lines; Homo sapiens, HL-60, 72 h, HL-60, 72 h (Table 9)): 5.46
pIC50 (cancer cell lines; Homo sapiens, HT-29, 72 h, HT29, 72 h (Table 9)): 5.33
pIC50 (cancer cell lines; Homo sapiens, HT-1080, 72 h, HT1080, 72 h (Table 9)): 5.50
pIC50 (cancer cell lines; Homo sapiens, HeLa, 72 h, 72 h (Table 9)): 5.53
pIC50 (cancer cell lines; Homo sapiens, HepG2, 72 h, HEPG2, 72 h (Table 9)): 5.50
pIC50 (cancer cell lines; Homo sapiens, Hs-578T, 72 h, HS578T, 72 h (Table 9)): 5.53
pIC50 (cancer cell lines; Homo sapiens, IGROV-1, 72 h, IGROV1, 72 h (Table 9)): 5.52
pIC50 (cancer cell lines; Homo sapiens, IMR-90, 72 h, IMR90, 72 h (Table 9)): 5.61
pIC50 (cancer cell lines; Homo sapiens, JEG-3, 72 h, JEG3, 72 h (Table 9)): 5.40
pIC50 (cancer cell lines; Homo sapiens, JIMT-1, 72 h, JIMT1, 72 h (Table 9)): 5.80
pIC50 (cancer cell lines; Homo sapiens, K562, 72 h, K-562, 72 h (Table 9)): 5.35
pIC50 (cancer cell lines; Homo sapiens, Kasumi 1, 72 h, KASUMI-1, 72 h (Table 9)): 6.02
pIC50 (cancer cell lines; Homo sapiens, L-363, 72 h, L-363, 72 h (Table 9)): 5.49
pIC50 (cancer cell lines; Homo sapiens, LoVo, 72 h, 72 h (Table 9)): 5.55
pIC50 (cancer cell lines; Homo sapiens, MCF7, 72 h, MCF7, 72 h (Table 9)): < 4.30
pIC50 (cancer cell lines; Homo sapiens, MDA-MB-231, 72 h, MDAMB231, 72 h (Table 9)): 5.59
pIC50 (cancer cell lines; Homo sapiens, MDA-MB-435, 72 h, MDAMB435, 72 h (Table 9)): < 4.30
pIC50 (cancer cell lines; Homo sapiens, MDA-MB-436, 72 h, MDAMB436, 72 h (Table 9)): 5.44
pIC50 (cancer cell lines; Homo sapiens, MDA-MB-468, 72 h, MDAMB468, 72 h (Table 9)): 5.40
pIC50 (cancer cell lines; Homo sapiens, MG-63, 72 h, MG63, 72 h (Table 9)): < 4.30
pIC50 (cancer cell lines; Homo sapiens, MHH-ES-1, 72 h, MHHES1, 72 h (Table 9)): 5.45
pIC50 (cancer cell lines; Homo sapiens, MIA PaCa-2, 72 h, MIAPACA2, 72 h (Table 9)): < 4.30
pIC50 (cancer cell lines; Homo sapiens, MINO, 72 h, 72 h (Table 9)): 5.87
pIC50 (cancer cell lines; Homo sapiens, MV4-11, 72 h, MV4-11, 72 h (Table 9)): 5.62
pIC50 (cancer cell lines; Homo sapiens, NCI-H23, 72 h, NCI-H23, 72 h (Table 9)): 5.53
pIC50 (cancer cell lines; Homo sapiens, NCI-H82, 72 h, NCIH82, 72 h (Table 9)): 5.56
pIC50 (cancer cell lines; Homo sapiens, NCI-H292, 72 h, NCIH292, 72 h (Table 9)): 5.43
pIC50 (cancer cell lines; Homo sapiens, NCI-H460, 72 h, NCIH460, 72 h (Table 9)): 5.48
pIC50 (cancer cell lines; Homo sapiens, OVCAR-3, 72 h, OVCAR3, 72 h (Table 9)): 5.38
pIC50 (cancer cell lines; Homo sapiens, OVCAR-4, 72 h, OVCAR4, 72 h (Table 9)): 5.51
pIC50 (cancer cell lines; Homo sapiens, PANC-1, 72 h, PANC1, 72 h (Table 9)): < 4.30
pIC50 (cancer cell lines; Homo sapiens, PLC-PRF-5, 72 h, PLCPRF5, 72 h (Table 9)): < 4.30
pIC50 (cancer cell lines; Homo sapiens, Panc1005, 72 h, PANC1005, 72 h (Table 9)): 5.41
pIC50 (cancer cell lines; Homo sapiens, Ramos, 72 h, 72 h (Table 9)): 5.73
pIC50 (cancer cell lines; Homo sapiens, SAOS-2, 72 h, SAOS2, 72 h (Table 9)): 5.78
pIC50 (cancer cell lines; Homo sapiens, SF-268, 72 h, SF268, 72 h (Table 9)): < 4.30
pIC50 (cancer cell lines; Homo sapiens, SF-295, 72 h, SF295, 72 h (Table 9)): 5.54
pIC50 (cancer cell lines; Homo sapiens, SK-BR-3, 72 h, SKBR3, 72 h (Table 9)): 5.75
pIC50 (cancer cell lines; Homo sapiens, SK-HEP1, 72 h, SKHEP1, 72 h (Table 9)): 5.58
pIC50 (cancer cell lines; Homo sapiens, SK-LMS-1, 72 h, SKLMS1, 72 h (Table 9)): 5.47
pIC50 (cancer cell lines; Homo sapiens, SK-MEL-5, 72 h, SKMEL5, 72 h (Table 9)): 5.22
pIC50 (cancer cell lines; Homo sapiens, SK-MEL-28, 72 h, SKMEL28, 72 h (Table 9)): 5.42
pIC50 (cancer cell lines; Homo sapiens, SK-N-AS, 72 h, SKNAS, 72 h (Table 9)): 5.53
pIC50 (cancer cell lines; Homo sapiens, SK-N-SH, 72 h, SKNSH, 72 h (Table 9)): 5.47
pIC50 (cancer cell lines; Homo sapiens, SK-OV-3, 72 h, SKOV3, 72 h (Table 9)): 5.49
pIC50 (cancer cell lines; Homo sapiens, SNB-75, 72 h, SNB75, 72 h (Table 9)): 5.49
pIC50 (cancer cell lines; Homo sapiens, SU-DHL10, 72 h, SU-DHL-10, 72 h (Table 9)): 5.59
pIC50 (cancer cell lines; Homo sapiens, SU-DHL-6, 72 h, SU-DHL-6, 72 h (Table 9)): 5.77
pIC50 (cancer cell lines; Homo sapiens, SW-620, 72 h, SW620, 72 h (Table 9)): 5.42
pIC50 (cancer cell lines; Homo sapiens, TE-671, 72 h, TE671, 72 h (Table 9)): < 4.30
pIC50 (cancer cell lines; Homo sapiens, THP-1, 72 h, THP-1, 72 h (Table 9)): 5.53
pIC50 (cancer cell lines; Homo sapiens, U2OS, 72 h, 72 h (Table 9)): 5.60
pIC50 (cancer cell lines; Homo sapiens, U-87 MG, 72 h, U87MG, 72 h (Table 9)): 5.56
pIC50 (cancer cell lines; Homo sapiens, UMUC3, 72 h, UMUC3, 72 h (Table 9)): 5.45
pIC50 (cancer cell lines; Homo sapiens, UO-31, 72 h, UO31, 72 h (Table 9)): 5.33
pIC50 (cancer cell lines; Homo sapiens, WSU-NHL, 72 h, 72 h (Table 9)): 5.50
pIC50 (cancer cell lines; NCI-H358M, 72 h, NCIH358M, 72 h (Table 9)): 6.14
pIC50 (cancer cell lines; PBMC, 72 h, 72 h (Table 9)): < 4.30
pIC50 (cancer cell lines; RD-ES, 72 h, RDES, 72 h (Table 9)): 5.52
SMILES: C#C[C@]1(CO)O[C@@H](n2cnc3c(N)nc(F)nc32)C[C@@H]1O [Islatravir (EFdA), Islatravir, reference compound]

From patent US20230293526A1, “METHOD FOR TREATING CANCER WITH A REVERSE TRANSCRIPTASE INHIBITOR” (PrimeFour Therapeutics, Inc., priority 2020, published 2023)
